Results published in US9284350B2, “IAP BIR domain binding compounds” (Pharmascience Inc., priority 2010, dated 2016).

How the values were obtained:
XIAP = target: T1, XIAP (Homo sapiens, UniProt P98170); assay: Fluorescence polarization-based competition assay, XIAP; type: binding; conditions: FP assay, ki derived from IC50
T1 construct: fused on or other part: GST tag at the N-terminus (pGEX4T vectors)
Procedure, shortened: (§1)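 Competition of FITC-labelled probe (2 nM) binding to the BIR domain, protein set at 80% of maximal FP signal; 10-point compound dilutions in 50 mM HEPES pH 7.5, γ-globulin, 2 mM DTT, 1% DMSO, 1 h at room temperature in the dark. IC50 from sigmoidal fit; Ki derived from IC50.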

c-IAP1 = target: T2, c-IAP1 (Homo sapiens, UniProt Q13490); assay: Fluorescence polarization-based competition assay, c-IAP1; type: binding; conditions: FP assay, ki derived from IC50
T2 construct: GST (N); made in house; host or cells: E. coli DH5α
Procedure, shortened: as §1

[1] = Maximum Tolerated Dose (MTD) study; type: in vivo, CD-1 mice; conditions: 350 mg/kg dose, PO twice weekly
Procedure: Male, CD-1 mice (20-25 g on arrival, Charles River) were habituated to the animal facility for four days and then randomly assigned to treatment groups. Animals were dosed by oral gavage twice weekly, for a total of six treatments, with compounds 63, 58, 45, 10, 20, 40, and 66 at 15, 70, or 350 mg/kg in water, PO, or water alone (5 ml/kg, PO). Body weight and general health were monitored throughout the experiment. Twenty four hours after the last dose (day 19), animals were anesthetized with isoflurane, and blood was collected for serum biochemistry. Serum biochemical parameters were restricted to random glucose, urea, creatinine, total protein, albumin, globulin, A:G ratio, total bilirubin, AST, ALT, alkaline phosphatase, GGT and amylase. Once exsanguinated the animals underwent full necropsy and organ weights were recorded for brain, heart, liver, spleen, kidneys, stomach (empty) and intestine (empty, from stomach to cecum). Because some treatments were suppressing weight gain (see below), organ weights were normalized to brain weight, and then expressed as percent change from the vehicle treated control group.

[2] = test system: Colorectal carcinoma HCT116 cells; assay: Cell death assay (MTT) in combination with HGS ETR1; type: cell-based; conditions: with HGS ETR1 30 ng/ml, 72 hours, read-out: HCT116+ mapatubimap EC50
Procedure, shortened: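 HCT116 cells (2000/well, McCoy's 5a, 10% FBS) were treated 24 h after plating with compound plus the agonistic TRAIL receptor antibody mapatumumab (ETR1, 30 ng/ml) for 72 hours. Viability was read by MTT. EC50 was the concentration giving 50% survival relative to untreated controls.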

cIAP2 = target: T3, cIAP2 (Homo sapiens, UniProt Q13489); assay: Fluorescence polarization-based competition assay, cIAP2; type: binding; conditions: FP assay, ki derived from IC50
T3 construct: GST (N); made in house; host or cells: E. coli DH5α
Procedure, shortened: as §1

T3 sequence (Q13489 236-349): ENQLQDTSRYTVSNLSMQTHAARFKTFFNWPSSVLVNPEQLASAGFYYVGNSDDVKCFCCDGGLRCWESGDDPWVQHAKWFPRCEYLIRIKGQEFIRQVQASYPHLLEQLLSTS
T2 sequence (Q13490 251-363): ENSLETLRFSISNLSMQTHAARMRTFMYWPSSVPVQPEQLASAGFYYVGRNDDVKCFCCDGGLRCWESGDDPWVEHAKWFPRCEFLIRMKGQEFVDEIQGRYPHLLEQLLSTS
T1 sequence (P98170 246-497 limits assumed): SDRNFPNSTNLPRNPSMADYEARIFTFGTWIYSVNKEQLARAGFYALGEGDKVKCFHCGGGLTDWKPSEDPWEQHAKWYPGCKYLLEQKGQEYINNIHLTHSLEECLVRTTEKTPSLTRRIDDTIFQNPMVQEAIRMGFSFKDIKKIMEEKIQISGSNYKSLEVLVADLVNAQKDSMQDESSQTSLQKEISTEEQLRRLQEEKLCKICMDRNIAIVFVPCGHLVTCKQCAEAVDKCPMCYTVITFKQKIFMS

| Compound | Ki (XIAP) | Ki (c-IAP1) | body weight change [1] | EC50 [2] | Ki (cIAP2) |
| --- | --- | --- | --- | --- | --- |
| CN[C@@H](C)C(=O)N[C@H](C(=O)N1CCC[C@H]1CN(CCc1ccc(F)cc1)C(=O)c1cn(C)cn1)C(C)(C)C [Compound 40] | < 0.25 µM | < 0.025 µM | slight weight loss | < 0.05 µM | < 0.025 µM |
| CN[C@@H](C)C(=O)N[C@H](C(=O)N1CCC[C@H]1CN(CCc1ccc(F)cc1)C(=O)c1cn2cc(F)cnc2n1)C(C)(C)C [Compound 63] | < 0.25 µM | < 0.025 µM | slight weight loss | < 0.05 µM | < 0.025 µM |
